How the values were obtained:
Assay in all cases: Agar diffusion test (microbiological test)
Type in all cases: cell-based
Conditions in all cases: 100 μl of a 1% solution in abs. ethanol; 48 h incubation at 37° C.
[1] = system: Escherichia coli NCTC 8196
Description: (§1) Casein soybean flour peptone agar (Merck)
(§2) Casein soybean flour peptone broth (Merck)
Escherichia coli NCTC 8196
(§3) Preparation of the Germ Suspensions
(§4) The test germs are cultivated overnight (about 18 h) at 37° C. in Caso-Broth (5 ml test tubes). The germ count of the overnight cultivation is determined by the spiralometer method and must be between 10^8-10^9 KBE/ml.
(§5) The culture is diluted to about 10^7 KBE/ml with 0.85% NaCl solution, pH 7.2.
(§6) Petri dishes are filled with about 18 ml of sterile nutrient agar which is allowed to solidify.
(§7) 3.5 ml of the germ dilution in 0.85% NaCl are pipetted into 500 ml of still liquid agar which is cooled in a water bath to 47° C. and homogenised.
(§8) 6 ml of the germ-infested agar are evenly distributed on the solidified ground layer. After a drying and storage time of about 24 hours at 4° C. the dishes are ready for the test.
(§9) Drop Amount 100 μl of a 1% solution of the tetraester of formula (104) in abs. ethanol are pipetted into the centre of the dish and are dried for about 30 minutes at room temperature (the substances run into zones of about 20-30 mm).
(§10) Results of the Agar Diffusion Test
(§11) After a 48 h incubation of the agar dishes at 37° C., the growth of the […] in the drop zone is assessed.

[2] = system: Corynebacterium xerosis ATCC 373
Description: as §1, §2
Corynebacterium xerosis ATCC 373
as §3, §4, §5, §6, §7, §8, §9, §10, §11

[3] = system: Staphylococcus aureus ATCC 9144
Description: as §1, §2
Staphylococcus aureus ATCC 9144
as §3, §4, §5, §6, §7, §8, §9, §10, §11

Structure (SMILES) | growth in the drop zone, Escherichia coli NCTC 8196 [1] | growth in the drop zone, Corynebacterium xerosis ATCC 373 [2] | growth in the drop zone, Staphylococcus aureus ATCC 9144 [3]
CCCCC(CC)COC(=O)CC(NCCNC(CC(=O)OCC(CC)CCCC)C(=O)OCC(CC)CCCC)C(=O)OCC(CC)CCCC (mixture of isomers) [ethylenediaminedisuccinic acid tetra(isooctyl)ester (isomer mixture), [S,S]-/[R,R]-/[R,S]-Ethylenediaminedisuccinic acid tetraisooctyl ester (isomer mixture)] | no inhibition | inhibition | no inhibition
CCCCC(CC)COC(=O)C[C@H](NCCN[C@@H](CC(=O)OCC(CC)CCCC)C(=O)OCC(CC)CCCC)C(=O)OCC(CC)CCCC (stereo partly drawn) [[S,S]-Ethylenediaminedisuccinic acid tetraisooctyl ester] | no inhibition | inhibition | no inhibition

Source: patent US6369268B1, “Diester amine adducts” (Ciba Specialty Chemicals Corporation, priority 1997, dated 2002)
